# PMC9181915, “Synthesis and Anti-Neuroinflammatory Activity of 1,7-diphenyl-1,4-heptadien-3-ones in LPS-Stimulated BV2 Microglia Via Inhibiting NF-κB/MAPK Signaling Pathways” (Molecules, 2022)
# Columns and labels:
# [1] = MTT cell viability assay in BV2 microglia cells; type: cell-based; details: mouse, mean ± SD, n = 3
# Method: (§1) The BV2 microglial cells were purchased from the China Center for Type Culture Collection, CCTCC (Wuhan, Hubei). BV2 microglia cells were incubated in DMEM media supplemented with 10% (v/v) FBS, 100 U/mL penicillin G and […] streptomycin at 37 °C with 5% CO2.
# Cell viability assays were evaluated using a 3-(4,5-dimethylthiazol-2-yl)-2,5-diphenyltetrazolium bromide (MTT) assay. BV2 microglia cells were seeded in 96-well plates at a density of 1.6 × 10^5 cells/well in complete medium and incubated for 24 h. Then, the culture medium was sucked and discarded, and sterile PBS was added for washing, and then PBS was removed. Then the cells were treated with different concentrations of target compounds for 24 h. An amount equal to 100 μL of MTT was added to each well and the cells were further incubated for 2–4 h. An amount equal to 150 μL of DMSO was added into a 96-well plate and vibrated with micro-oscillator for 10 min. The optical density (A) was measured at […] on a microplate reader. The inhibitory rate of the various concentrations of agents in BV2 cells was calculated using the following formula:Cell viability (%) = [A492 (sample) − A492 (blank)]/[A492 (control) − A492 (blank)] × 100%
# [2] = tested on: LPS-induced NO release in BV2 cells; assay: Inhibition of LPS-induced NO release in BV2 cells; type: cell-based; details: Mus musculus, BV-2, pretreated 1 h, then LPS 1 μg/mL for 24 h, BV2 cells
# Method: as §1
# Nitrite, a stable product of nitric oxide, was used to assess NO production. To study the effects of the compounds on NO production, BV2 microglia cells in the logarithmic phase were plated at 1 × 10^5 cells/well in a 24-well microplate and incubated in DMEM medium (10% FBS) overnight. The cells were pretreated with various concentrations of the test compounds for 1 h and further co-cultured with 1 μg/mL LPS and 5% CO2 for 24 h in a 37 °C incubator; then, the supernatant was taken and stored at −20 °C for NO detection. The target compound and LPS were configured with DMEM medium (2% FBS). The determination of NO was carried out according to the instructions. Unpretreated and unstimulated BV2 microglia cells were conducted as the blank control group. The absorbance value was determined at 540 nm, and the corresponding NO content was calculated by using the standard curve. The NO inhibitory rate of the various concentrations of agents in BV2 cells was calculated as per the following formula:Inhibition rate (%) = (LPS(NO concentration) − sample(NO concentration))/(LPS(NO concentration) − negative control(NO concentration)) × 100%.
Compound,"viability at 24 h, 1 µM [1] [%]","viability at 24 h, 3 µM [1] [%]","viability at 24 h, 10 µM [1] [%]",inhibition at 1 µM [2] [%],melting point [°C],inhibition at 3 µM [2] [%]
"O=C(/C=C/CCc1ccc(O)cc1)/C=C/c1ccc(O)cc1 [CU-1, (1E,4E)-1,7-bis(4-hydroxyphenyl)-1,4-heptadien-3-one]",88.07 ± 0.19,49.84 ± 0.27,23.7 ± 0.38,0,,
"COc1ccc(/C=C/C(=O)/C=C/CCc2ccc(OC)c(OC)c2)cc1OC [CU-2, (1E,4E)-1,7-bis(3,4-dimethoxyphenyl)-1,4-heptadien-3-one]",76.92 ± 0.19,49.2 ± 0.92,10.6 ± 1.13,0,97 to 99,
"COc1ccc(/C=C/C(=O)/C=C/CCc2ccccc2)cc1 [CU-3, (1E,4E)-7-phenyl-1-(4-methoxyphenyl)-1,4-heptadien-3-one]",106.7 ± 0.14,101.55 ± 0.01,98.5 ± 0.01,,48 to 50,35.2
"COc1cc(/C=C/C(=O)/C=C/CCc2ccccc2)cc(OC)c1OC [CU-4, (1E,4E)-7-phenyl-1-(3,4,5-trimethoxyphenyl)-1,4-heptadien-3-one]",107.23 ± 0.09,73.92 ± 0.3,16.6 ± 0.45,3.1,95 to 97,
"O=C(/C=C/CCc1ccccc1)/C=C/c1ccccc1O [CU-5, (1E,4E)-1-(2-hydroxyphenyl)-7-phenyl-1,4-heptadien-3-one]",95.68 ± 0.11,77.39 ± 0.3,15.9 ± 0.61,0,134 to 136,
"O=C(/C=C/CCc1ccccc1)/C=C/c1cccc(O)c1 [CU-6, (1E,4E)-1-(3-hydroxyphenyl)-7-phenyl-1,4-heptadien-3-one]",106.85 ± 0.1,100.07 ± 0.01,101.56 ± 0.03,,94 to 96,22.1
"O=C(/C=C/CCc1ccccc1)/C=C/c1ccc(O)cc1 [CU-7, (1E,4E)-1-(4-hydroxyphenyl)-7-phenyl-1,4-heptadien-3-one]",93.46 ± 0.35,52.8 ± 0.5,14.3 ± 0.7,0,121 to 123,
"COc1ccc(/C=C/C(=O)/C=C/CCc2ccccc2)cc1O [CU-8, (1E,4E)-1-(3-hydroxy-4-methoxyphenyl)-7-phenyl-1,4-heptadien-3-one]",101.18 ± 0.04,97.4 ± 0.07,18.2 ± 0.86,,72 to 74,18.8
"COc1cc(/C=C/C(=O)/C=C/CCc2ccccc2)ccc1O [CU-9, (1E,4E)-1-(4-hydroxy-3-methoxyphenyl)-7-phenyl-1,4-heptadien-3-one]",99.38 ± 0.01,94.65 ± 0.07,14.8 ± 0.75,,114 to 116,7.52
"COc1cc(CC/C=C/C(=O)/C=C/c2ccc(O)cc2)ccc1O [CU-12, (1E,4E)-7-(4-hydroxy-3-methoxyphenyl)-1-(4-hydroxyphenyl)-1,4-heptadien-3-one]",92.03 ± 0.29,75.55 ± 0.17,12.7 ± 0.59,0,,
"O=C(/C=C/CCc1ccccc1)/C=C/c1ccccc1 [CU-15, (1E,4E)-1,7-diphenyl-1,4-heptadien-3-one]",104.99 ± 0.03,103.11 ± 0.03,84.19 ± 0.21,,,13.7
"COc1ccc(CC/C=C/C(=O)/C=C/c2ccccc2)cc1OC [CU-23, (1E,4E)-7-(3,4-dimethoxyphenyl)-1-phenyl-1,4-heptadien-3-one]",106.5 ± 0.14,100.85 ± 0.01,12.3 ± 0.84,,,31.4
"COc1cc(CC/C=C/C(=O)/C=C/c2ccccc2)cc(OC)c1OC [CU-27, (1E,4E)-1-phenyl-7-(3,4,5-trimethoxyphenyl)-1,4-heptadien-3-one]",116.1 ± 0.44,101.31 ± 0.03,38.9 ± 1.19,,,7.02
